# Data reported in US11214803B2, “Modulators of YAP1 expression” (Ionis Pharmaceuticals, Inc., priority 2019, dated 2022).
# Strand notation (5' to 3'): a small letter for the sugar, then the base; units joined by * are phosphorothioate-linked, units joined directly phosphodiester-linked; [ ] holds rarer units or linkages, { } end groups; capitals alone tell only the bases. k = constrained ethyl (cEt); [5mC] = 5-methylcytosine; d = 2'-deoxy (DNA)
# System: Yap1 mRNA
# Assay: Antisense inhibition of human Yap1 in A-431 cells by cEt gapmers, single dose (Example 2, RTS4814)
# Format: cell-based
# In short: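 A-431 cells (5,000/well) received 2,000 nM oligonucleotide by free uptake for about 48 h. Yap1 mRNA was then quantified by RT-qPCR with primer probe set RTS4814, normalized to RIBOGREEN total RNA, and reported as % of untreated control; asterisked values mark oligos inside the amplicon.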
# [1] = Table 18, A-431 cells, 5,000 cells per well, free uptake, 2,000 nM modified oligonucleotide, approx. 48 hours, RTS4814, normalized to RIBOGREEN, Yap1 mRNA as percent of untreated control
# [2] = Table 25, Yap1 mRNA as percent of untreated control, 3-10-3 cEt gapmers targeting SEQ ID NO.: 1, and 2
# [3] = Table 24, Yap1 mRNA as percent of untreated control, 3-10-3 cEt gapmers targeting SEQ ID NO.: 1, and 2
# [4] = Table 23, Yap1 mRNA as percent of untreated control, 3-10-3 cEt gapmers, single dose
# [5] = Table 33, Yap1 mRNA, percent of untreated control, 3-10-3 cEt gapmers targeting SEQ ID NO.: 1, and 2
# [6] = Table 6, A-431 cells, 5,000 cells per well, free uptake, 2,000 nM modified oligonucleotide, approx. 48 hours, RTS4814, normalized to RIBOGREEN, Yap1 mRNA relative to untreated control cells
# [7] = Table 20, Yap1 mRNA, percent of untreated control, 3-10-3 cEt gapmers targeting SEQ ID NO.: 1 and 2
# [8] = Table 32, Yap1 mRNA, percent of untreated control, 3-10-3 cEt gapmers targeting SEQ ID NO.: 1, and 2
# [9] = Table 5, A-431 cells, 5,000 cells per well, free uptake, 2,000 nM modified oligonucleotide, approx. 48 hours, RTS4814, normalized to RIBOGREEN, Yap1 mRNA relative to untreated control cells
# [10] = Table 19, A-431 cells, 5,000 cells per well, free uptake, 2,000 nM modified oligonucleotide, approx. 48 hours, RTS4814, normalized to RIBOGREEN, Yap1 mRNA as percent of untreated control
# [11] = A-431 cells, 5,000 cells per well, free uptake, 2,000 nM modified oligonucleotide, approx. 48 hours, RTS4814, normalized to RIBOGREEN, Table 4, asterisk (*) = targets amplicon region of primer probe set
# [12] = Yap1 mRNA as percent of untreated control, A-431 cells, 3-10-3 cEt gapmers targeting SEQ ID NO.: 1, and 2, Table 31
substance,measurement,setting,value
1074212 (antisense kG*k[5mC]*kT*dT*d[5mC]*d[5mC]*dG*dG*dA*dG*d[5mC]*d[5mC]*dT*k[5mC]*kA*kT) [Compound 1074212],YAP1 (% UTC),[1],53 % UTC
1076331 (k[5mC]*kA*kT*dT*dA*dT*dT*d[5mC]*dA*dG*dT*dA*dG*kT*kT*kG; antisense) [Compound 1076331],YAP1 (% UTC),[2],71 % UTC
1075914 (kA*kT*kT*dT*dA*dG*dG*dA*dT*dG*d[5mC]*d[5mC]*dT*kT*kT*kA; antisense) [Compound 1075914],YAP1 (% UTC),[3],14 % UTC
1074569 (antisense kT*kG*kA*dA*d[5mC]*d[5mC]*dT*dA*d[5mC]*dT*d[5mC]*dA*d[5mC]*kT*kG*kA) [Compound 1074569],YAP1 (% UTC),[4],8 % UTC
1074473 (k[5mC]*kA*kA*d[5mC]*d[5mC]*d[5mC]*d[5mC]*d[5mC]*d[5mC]*d[5mC]*dA*d[5mC]*d[5mC]*kG*kA*k[5mC]; antisense) [Compound 1074473],YAP1 (% UTC),[4],82 % UTC
1074355 (antisense kA*kG*kG*dG*dA*d[5mC]*dA*d[5mC]*dT*dG*dT*dA*dG*k[5mC]*kT*kG) [compound 1074355],YAP1 (% UTC),[5],55 % UTC
716534 (antisense kG*kA*kT*dT*dA*dT*dA*dA*dA*dA*dT*dT*dG*kG*kT*kT) [Compound 716534],YAP1 (% UTC),[6],90 % UTC
1074662 (antisense kG*kG*kT*dA*dG*dA*dA*dT*dT*dT*d[5mC]*dA*dT*kT*kA*k[5mC]) [Compound 1074662],YAP1 (% UTC),[7],30 % UTC
1075690 (k[5mC]*kG*kT*dT*dA*dA*d[5mC]*dA*dA*d[5mC]*dT*dA*dT*kA*k[5mC]*kA; antisense) [Compound 1075690],YAP1 (% UTC),[3],33 % UTC
1074468 (k[5mC]*k[5mC]*kA*d[5mC]*d[5mC]*dG*dA*d[5mC]*d[5mC]*d[5mC]*dT*dG*d[5mC]*k[5mC]*kA*kA; antisense) [Compound 1074468],YAP1 (% UTC),[1],34 % UTC
716549 (k[5mC]*k[5mC]*kA*d[5mC]*dT*dT*dT*dT*dG*d[5mC]*dA*dA*dT*kG*kT*kT; antisense) [Compound 716549],YAP1 (% UTC),[6],44 % UTC
1075908 (kA*kA*kT*dA*dA*dG*dG*dA*dG*dT*dA*dG*dG*kT*kG*kG; antisense) [Compound 1075908],YAP1 (% UTC),[1],50 % UTC
1074404 (antisense kG*kG*k[5mC]*dT*dT*dA*dT*dG*dG*dA*dA*dA*dT*kT*kT*k[5mC]) [Compound 1074404],YAP1 (% UTC),[1],16 % UTC
1075435 (antisense k[5mC]*kT*kT*dA*dA*dA*d[5mC]*dG*dA*dT*dA*dA*dA*kG*kT*kA) [Compound 1075435],YAP1 (% UTC),[2],93 % UTC
1074386 (k[5mC]*kA*kG*dG*dA*dA*dT*dG*dG*d[5mC]*dT*dT*d[5mC]*kA*kA*kG; antisense) [compound 1074386],YAP1 (% UTC),[8],39 % UTC
716572 (k[5mC]*kA*kG*dT*dA*dA*dG*dA*dA*dG*d[5mC]*d[5mC]*dA*kA*kA*kA; antisense) [Compound 716572],YAP1 (% UTC),[9],122 % UTC
1076198 (k[5mC]*kT*kA*dT*dT*dA*dT*d[5mC]*dA*dA*dG*dG*dG*kA*kA*kT; antisense) [Compound 1076198],YAP1 (% UTC),[7],81 % UTC
1075403 (antisense k[5mC]*kT*kT*dA*dA*dT*d[5mC]*dA*dG*dG*dT*dA*d[5mC]*kT*kA*kT) [Compound 1075403],YAP1 (% UTC),[2],18 % UTC
1075851 (kG*k[5mC]*k[5mC]*dG*dA*dA*dT*dA*dT*dG*dG*dG*dA*kA*kA*kA; antisense) [Compound 1075851],YAP1 (% UTC),[2],70 % UTC
1074724 (antisense kG*kG*kG*dT*dA*dA*dA*dG*dG*dA*dA*dG*dA*kT*k[5mC]*kT) [Compound 1074724],YAP1 (% UTC),[1],22 % UTC
1076240 (kA*kT*kT*dA*dA*dA*dA*dG*d[5mC]*dA*dA*dG*dG*kT*kG*k[5mC]; antisense) [compound 1076240],YAP1 (% UTC),"Yap1 mRNA as percent of untreated control, A-431 cells, 3-10-3 cEt gapmers targeting SEQ ID NO.: 1, and 2, Table 30",56 % UTC
1075539 (k[5mC]*kT*kT*dA*dA*dG*dG*dG*dA*dT*dG*dG*dA*kA*k[5mC]*kA; antisense) [compound 1075539],YAP1 (% UTC),[5],79 % UTC
1075625 (kA*kA*kT*d[5mC]*dT*dA*dT*dA*dA*d[5mC]*d[5mC]*d[5mC]*dT*kT*kA*kT; antisense) [Compound 1075625],YAP1 (% UTC),[4],49 % UTC
1074405 (antisense kG*k[5mC]*k[5mC]*dT*dG*dA*dA*dA*dA*d[5mC]*dT*dG*d[5mC]*kA*kA*k[5mC]) [Compound 1074405],YAP1 (% UTC),[10],27 % UTC
1075049 (antisense kG*kA*kA*dA*dT*dA*dT*dT*dG*dG*dT*dA*dA*kG*kT*k[5mC]) [Compound 1075049],YAP1 (% UTC),[4],10 % UTC
1075366 (kA*k[5mC]*kA*d[5mC]*dG*dA*dA*dA*dA*dT*dA*dG*dT*kT*k[5mC]*kT; antisense) [Compound 1075366],YAP1 (% UTC),[7],27 % UTC
1075122 (kG*kA*kA*dA*dA*dT*dT*dA*dG*d[5mC]*d[5mC]*dT*dA*k[5mC]*k[5mC]*kA; antisense) [compound 1075122],YAP1 (% UTC),[8],16 % UTC
1074281 (antisense kG*kA*kG*dG*dG*dT*d[5mC]*dA*dA*dG*d[5mC]*d[5mC]*dT*kT*kG*kG) [Compound 1074281],YAP1 (% UTC),[4],91 % UTC
1075557 (kT*kA*kT*dT*dA*dA*dG*dG*dT*dG*dG*d[5mC]*dT*kT*kA*k[5mC]; antisense) [Compound 1075557],YAP1 (% UTC),[10],57 % UTC
716492 (kA*kA*kA*d[5mC]*dA*d[5mC]*dA*dG*dA*dG*dG*dT*dG*k[5mC]*kT*kA; antisense) [Compound 716492],YAP1 (% UTC),[6],72 % UTC
716566 (kG*kG*kT*dA*dA*d[5mC]*dT*d[5mC]*dT*dT*d[5mC]*dT*dT*kT*k[5mC]*k[5mC]; antisense) [Compound 716566],YAP1 (% UTC),[9],102 % UTC
1074887 (antisense kT*kA*kG*d[5mC]*d[5mC]*dT*dG*dA*dA*dG*d[5mC]*dA*dA*kG*kT*kT) [Compound 1074887],YAP1 (% UTC),"Table 21, Yap1 mRNA, percent of untreated control, 3-10-3 cEt gapmers targeting SEQ ID NO.: 1 and 2",57 % UTC
716496 (kG*kA*kA*dG*dA*dG*dA*dT*dT*dT*dT*dA*dT*kG*k[5mC]*k[5mC]; antisense) [Compound 716496],YAP1 (% UTC),[11],19 % UTC
1075763 (kA*kT*kT*dT*dA*dG*dG*d[5mC]*dT*dT*dT*dG*dG*kG*kT*kT; antisense) [compound 1075763],YAP1 (% UTC),[5],16 % UTC
1075730 (kG*kT*kA*dT*dT*dT*dA*dA*dA*dA*dA*dT*dA*kG*k[5mC]*kG; antisense) [compound 1075730],YAP1 (% UTC),[8],92 % UTC
1074257 (antisense kG*k[5mC]*kA*d[5mC]*dT*dG*dG*dT*dG*dG*dA*d[5mC]*dT*kG*kG*kT) [compound 1074257],YAP1 (% UTC),[12],29 % UTC
1076426 (kA*k[5mC]*kG*dG*dG*dA*dA*dA*dA*dT*dT*d[5mC]*dT*kG*kG*kA; antisense) [Compound 1076426],YAP1 (% UTC),[3],9 % UTC
1075345 (antisense kG*kT*kA*dA*d[5mC]*dT*dA*dA*dA*dA*dG*dG*dG*kA*kG*kT) [compound 1075345],YAP1 (% UTC),[12],29 % UTC
1076329 (kA*kA*kT*dT*dA*dT*dA*d[5mC]*dT*dG*dG*d[5mC]*dT*kA*k[5mC]*kT; antisense) [Compound 1076329],YAP1 (% UTC),[4],14 % UTC
716553 (kA*kT*k[5mC]*d[5mC]*dA*d[5mC]*d[5mC]*dT*dG*dA*dG*d[5mC]*dA*k[5mC]*kT*k[5mC]; antisense) [Compound 716553],YAP1 (% UTC),[11],54 % UTC
